In assay [1] the target is T1, human Langerin (hLang) CRD wild type (Homo sapiens, UniProt Q9UJ71).
T1 construct: ranging from amino acids 193 - 328 and; His-tag (N); made in house; host or cells: E. coli BL21
Briefly: 1H-15N HSQC NMR titration, hLang CRD wild type. The format is binding. The settings on record: for 15N HSQC KD hLang (Human-WT) / Kd: hLang CRD wild type, from CSP trajectories, 298 K, pH 6; for Kd: read-out: 15N HSQC KD hLang (Human-WT). On the procedure:
(§1) Protein expression and purification hLang and mLang CRD wild type and all the mutants, ranging from amino acids 193 - 328 and 194 - 331, were cloned from a codon-optimized Langerin gene for bacterial expression (GenScript, Piscataway, NJ, USA) into a pET-28a vector (GenScript, Piscataway, NJ, USA) carrying an N-terminal His-tag and a T7 promoter. All constructs were expressed in E. coli BL21 (ThermoFisher Scientific, Waltham, MA, USA) in LB medium or in M9 medium at 37 °C. Protein expression was induced by adding 1 mM IPTG (isopropyl β-D-1-thiogalactopyranoside) at an OD600 between 0.7 - 1 and were grown overnight at 37 °C. Bacteria were harvested by centrifugation at 4000 g for 30 mins. Cells were lysed in lysis buffer (50 mM Tris, 150 mM NaCl, 10 mM MgCl2, 0.1% Tween-20, pH 8) with 1 mg/mL lysozyme (Sigma Aldrich, St. Louis, MO, USA) and 100 μg/mL DNase I (Applichem, Darmstadt, Germany) for at least 3 h at room temperature or 4 °C overnight or sonicated 1 h with amplitude 55%. Inclusion bodies were harvested by centrifugation at 15000 g […]
(§2) Inclusion bodies were washed twice with lysis buffer and ultrapure water to remove cell debris and soluble proteins. Then inclusion bodies were denatured with 20 mL of denaturation buffer (6 M guanidinium hydrochloride in 100 mM Tris (pH 8)) with 0.01% β -mercaptoethanol for at least 1 h at 37 °C, shaking at 220 rpm. The supernatant was slowly diluted 1:10 with CTL refolding buffer (0.4 M L-arginine in 50 mM Tris, 20 mM NaCl, 0.8 mM KCl, pH 8.3) with 1 mM reduced glutathione (GSH) and 0.1 mM oxidized glutathion e (GSSG) while stirring at 4 °C for at least 48 h after centrifugation (15,000 x g, 90 min, 4 °C). The refolded protein solution was dialyzed against 5 L TBS buffer (50 mM Tris, 150 mM NaCl, 5 mM CaCl 2) and then centrifuged to remove precipitated protein (15,000 x g, 90 min, 4 °C). The supernatant was purified by Ni -NTA agarose […]
(§3) affinity chromatography (Thermo Fisher) and the fractions of the elution were pooled and dialyzed against MES buffer (25 mM MES, 40 mM NaCl, 5 mM CaCl2, pH 6). Precipitated protein was removed by centrifugation (15,000 x g, 90 min, 4 °C) and the supernatant was used for experiments. We then concentrated protein with 5 - 6 mg/mL as the final concentration.
(§4) 1H-15N HSQC NMR measurements and backbone resonance assignment
(§5) NMR assignment and 15N-HSQC NMR for CSP plot and KD calculations were performed on a 700 MHz Bruker Advance III spectrometer (Bruker, Billerica, MA, USA) equipped with a PRODIGY probe. For mLang CRD backbone assignment, we performed a series of standard triple resonance experiments HNCA, HNCACB, HN(CO)CA and HN(CO)CACB as Hanske et al. described.1 Data was analyzed by using CcpNmr 2.5.1.2 In total, 88% of the residues were unambiguously assigned.
(§6) Most of the unassigned residues are prolines or residues in the mobile loops near the CBS, as reported for similar protein for example human Langerin.1 For the sample preparation, we used 300 µM 15N and 13C labeled protein, which is in 25 mM MES, 40 mM NaCl, 5 mM CaCl2, pH 6 containing 100 μM DSS, 0.05% NaN3, and 10% D2O buffer. 1H–15N HSQC NMR titrations experiments were performed with 100 μM of Langerin CRD containing 50 μM 4,4-dimethyl-4-silapentane-1-sulfonic acid (DSS) as an internal reference, and 10% D2O. 128 increments and 4 - 16 transients were recorded at 298 K, depending on the protein concentration and the machine implemented. NMR titration data were processed and analyzed, as previously done in Hanske et al. described (2016).1 The protein sample was added stepwise for titration of the thiazolopyrimidine derivatives or peptides until the most solubility tolerance was reached as the final concentration. Step size according to expected KD varied.

Another assay deals with T2, hLang M260S-S265Y (Homo sapiens, UniProt Q9UJ71, M260S/S265Y).
T2 construct: ranging from amino acids 193 - 328 and; His-tag (N); made in house; host or cells: E. coli BL21
T2 sequence (Q9UJ71 193-328 M260S/S265Y): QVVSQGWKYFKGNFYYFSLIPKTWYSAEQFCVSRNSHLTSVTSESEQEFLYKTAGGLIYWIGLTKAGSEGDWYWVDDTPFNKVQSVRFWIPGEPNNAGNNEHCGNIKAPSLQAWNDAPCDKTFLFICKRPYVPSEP
Description: 1H-15N HSQC NMR titration, hLang CRD double mutant. The format is binding. Conditions: for Kd: hLang CRD M260S-S265Y mutant. On the procedure: as §1
Inclusion bodies were washed twice with lysis buffer and ultrapure water to remove cell debris and soluble proteins. […]
as §5
Most of the unassigned residues are prolines or residues in the mobile loops near the CBS, as reported for similar protein for example human Langerin.1 For the sample preparation, we used 300 µM 15N and 13C labeled protein, which is in 25 mM MES, 40 mM NaCl, 5 mM CaCl2, pH 6 containing 100 μM DSS, 0.05% NaN3, and 10% D2O buffer. […] 128 increments and 4 - 16 transients were recorded at 298 K, depending on the protein concentration and the machine implemented. […]

A further assay concerns the target T3, mLang S263M-Y268S (Mus musculus, UniProt Q8VBX4, S263M/Y268S).
T3 construct: 194 - 331, were cloned from a codon-optimized Langerin gene; His-tag (N); made in house; host or cells: E. coli BL21
T3 sequence (Q8VBX4 194-331 S263M/Y268S): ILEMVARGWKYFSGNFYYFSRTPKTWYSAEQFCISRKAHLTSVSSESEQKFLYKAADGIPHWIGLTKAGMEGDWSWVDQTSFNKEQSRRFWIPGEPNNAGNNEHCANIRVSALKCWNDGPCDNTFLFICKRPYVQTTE
Description: 1H-15N HSQC NMR titration, mLang CRD double mutant. The format is binding, murine. The settings on record: for Kd: mLang CRD S263M-Y268S mutant, read-out: 15N HSQC KD Murine-S263M-Y268S. On the procedure:
as §1
Inclusion bodies were washed twice with lysis buffer and ultrapure water to remove cell debris and soluble proteins. Then inclusion bodies were denatured with 20 mL of denaturation buffer (6 M guanidinium hydrochloride in 100 mM Tris (pH 8)) with 0.01% β -mercaptoethanol for at least 1 h at 37 °C, shaking at 220 rpm. […]
as §5
as §6, with “1H–15N HSQC NMR titrations experiments were performed with 100 μM of Langerin CRD containing 50 μM 4,4-dimethyl-4-silapentane-1-sulfonic acid (DSS) as an internal reference, and 10% D2O.” left out, “Step size according to expected KD varied.” left out

Assay [2] concerns the target T4, murine Langerin (mLang) CRD wild type (Mus musculus, UniProt Q8VBX4).
T4 construct: 194 - 331, were cloned from a codon-optimized Langerin gene; His-tag (N); made in house; host or cells: E. coli BL21
T4 sequence (Q8VBX4 194-331): T3 sequence (Q8VBX4 194-331 S263M/Y268S) with M70S, S75Y
Description: 1H-15N HSQC NMR titration, mLang CRD wild type. The format is binding. The settings on record: from CSP trajectories, 298 K; for 15N HSQC KD mLang (Murine-WT): pH 6; for Kd: pH 6, read-out: 15N HSQC KD mLang (Murine-WT). Here is the method: as §1, §2, §3, §4, §5, §6

SMILES strings stand for the structures. Substitutions are numbered along the chain they refer to. Where a SMILES comes first, the peptide text is derived from it.

T1 sequence (Q9UJ71 193-328): as the sequence (Q9UJ71 193-328 M260S/S265Y) above, with S68M, Y73S counted along it

The term Kd denotes a measure of binding affinity in units of concentration. Regarding `COc1ccccc1CNC(=O)c1cnc2sccn2c1=O` [Compound 2], the “15N HSQC KD hLang (Human-WT)” value in assay [1] is “not detectable and no detectable binding and nb”. The equilibrium dissociation constant (Kd) on hLang M260S-S265Y worked out at 450 ± 280 µM; at mLang S263M-Y268S it was 1740 ± 160 µM; in assay [2], 160 ± 60 µM. The “fold decrease in binding affinity to mLang S263M-Y268S compared to WT” value at mLang S263M-Y268S (mutant vs WT) is given as 10 fold. For the same compound, in assay [2], the “15N HSQC KD mLang (Murine-WT)” value was “micromolar affinity”.

As to `O=C(NCCc1cn2c(n1)SCC2)c1cnc2sccn2c1=O` [Compound 3], the dissociation constant Kd was determined as 110 ± 40 µM in assay [1] and 1140 ± 60 µM in assay [2].

As for `C[C@H](N)C(=O)N[C@@H](Cc1c[nH]c2ccccc12)C(=O)N[C@@H](CO)C(=O)O` [AWS] (H-Ala-Trp-Ser-OH), the Kd was determined as 2400 ± 940 µM in assay [1] and 1600 ± 300 µM in assay [2].

Turning to `C[C@H](NC(=O)[C@@H](N)CO)C(=O)N[C@@H](Cc1c[nH]c2ccccc12)C(=O)N[C@@H](CO)C(=O)O` [SAWS] (H-SAWS-OH), in assay [1], the “15N HSQC KD hLang (Human-WT)” value is listed as “high-micromolar affinity” and the Kd turned out to be 820 ± 130 µM. Further, in assay [2], the “15N HSQC KD mLang (Murine-WT)” value is reported as “high-micromolar affinity” and the equilibrium dissociation constant (Kd) was 670 ± 230 µM.

Regarding `O=C(NCc1ccc2c(c1)OCO2)c1c(O)nc2sccn2c1=O` [Compound 7], in assay [1], the “15N HSQC KD hLang (Human-WT)” value is “no detectable binding and nb”. Moreover, in assay [2], the “15N HSQC KD mLang (Murine-WT)” value is on record as “micromolar affinity” and the Kd is 280 ± 160 µM.

For `Cc1sc2ncc(C(=O)O)c(=O)n2c1C` [Compound 4], the Kd in assay [1] is 900 ± 300 µM; in assay [2], 400 ± 140 µM.

As to `N[C@@H](CO)C(=O)N[C@@H](CO)C(=O)N[C@@H](Cc1c[nH]c2ccccc12)C(=O)N[C@@H](CO)C(=O)O` [SSWS] (H-SSWS-OH), in assay [2], the Kd came out at 460 ± 30 µM.

In the case of `COc1cc2c(cc1OC)CC(NC(=O)c1cnc3sccn3c1=O)C2` [Compound 6], the “15N HSQC KD hLang (Human-WT)” value in assay [1] is “no detectable binding and nb”. Also, in assay [2], the “15N HSQC KD mLang (Murine-WT)” value is recorded as “micromolar affinity” and the dissociation constant (Kd) is 230 ± 60 µM.

As for `Cc1csc2ncc(C(=O)O)c(=O)n12` [Compound 5], in assay [1], the “15N HSQC KD hLang (Human-WT)” value was “no detectable binding and nb”. Besides, in assay [2], the “15N HSQC KD mLang (Murine-WT)” value is recorded as “micromolar affinity” and the dissociation constant (Kd) turned out to be 610 ± 110 µM.

For `O=C(O)c1cnc2sccn2c1=O` [Compound 1], the dissociation constant (Kd) in assay [1] is 130 ± 40 µM; on hLang M260S-S265Y, 340 ± 220 µM; at mLang S263M-Y268S, 480 ± 340 µM; in assay [2], 1800 ± 600 µM. Also, in assay [1] (hLang vs mLang wild type), the “fold higher affinity for hLang compared to mLang” value is recorded as “more than 10 fold”. Further, at hLang M260S-S265Y (mutant vs WT), the “fold decrease in affinity to hLang M260S-S265Y compared to WT” value is recorded as 3 fold. Moreover, the “fold increase in affinity for mLang S263M-Y268S compared to WT” value on mLang S263M-Y268S (mutant vs WT) was determined as 3 fold.

The record behind these values is article PMC9594047, “Identification of the Allosteric Binding Site for Thiazolopyrimidine on the C-Type Lectin Langerin” (ACS Chemical Biology, 2022).
